Results taken from patent US9512459B2 (priority 2011, dated 2016).
Read-outs that look alike come from different tables or passages of the source.

Key:
[1] = target: Sclerotinia sclerotiorum glucose dehydrogenase (FAD-GDH) Ssc-n1 variant N191E, SEQ ID NO: 1 (Sclerotinia sclerotiorum, UniProt A7F9L2, N191E); conditions: 60 ml culture, crude enzyme; glucose 1-40 mM, pH 6.5, DCIP/PMS
Experimental: (§1) The transformant BL21 (DE3) expressing each mutated enzyme was precultured. The transformant was inoculated in an amount of 1% with respect to 60 ml of a medium A using a 300-ml baffled flask and shake-cultured under conditions involving 20° C., 28 hours, and 125 rpm. After collection of 50 ml of the medium, the bacterial cells were suspended by the addition of BugBuster (registered trademark) protein extraction reagent (Novagen/Merck KGaA) at a ratio of 5 ml per g of wet cells and incubated at room temperature for 15 minutes with gentle shaking. Insoluble fractions were removed by centrifugation (15 Krpm, 4° C., 20 minutes). Then, the obtained supernatant was dialyzed overnight at 4° C. against a 20 mM potassium phosphate buffer solution (pH 6.5). After the completion of the dialysis, the dialysate was centrifuged, and the supernatant was used as a crude enzyme preparation. Insoluble fractions were suspended in a 20 mM potassium phosphate buffer solution (pH 6.5) at a ratio of 1 ml per 2 ml of the suspension containing the insoluble fractions.
(§2) The GDH activity was measured in a DCIP (0.3 mM)/PMS (0.6 mM) system using a 20 mM potassium phosphate buffer solution (pH 6.5) as a buffer solution and glucose (Glc; 1, 2, 4, 10, 20, and 40 mM) and xylose (Xyl; 4 and 40 mM) as substrates.
(§3) The numeric values in the tables represent a mean of several data about specific activity (U/mg) and productivity (U/L) obtained under the same conditions with 40 mM glucose as a substrate. The obtained crude enzyme preparation was used to observe the correlation between the concentration of the substrate (glucose; 1, 2, 4, 10, 20, and 40 mM) and the activity. The obtained Michaelis-Menten constant (Km value) and apparent maximum activity (Vmax) were determined from a saturation curve determined therefrom.

[2] = target: Sclerotinia sclerotiorum glucose dehydrogenase (FAD-GDH) Ssc-n1 variant N191K, SEQ ID NO: 1 (Sclerotinia sclerotiorum, UniProt A7F9L2, N191K); conditions: 60 ml culture, crude enzyme; glucose 1-40 mM, pH 6.5, DCIP/PMS
Experimental: as §1, §2, §3

[3] = target: Sclerotinia sclerotiorum glucose dehydrogenase (FAD-GDH) Ssc-n1 variant N191K/S529G, SEQ ID NO: 1 (Sclerotinia sclerotiorum, UniProt A7F9L2, N191K/S529G); conditions: 60 ml culture, crude enzyme; glucose 1-40 mM, pH 6.5, DCIP/PMS
Experimental: as §1, §2, §3

[4] = target: Sclerotinia sclerotiorum glucose dehydrogenase (FAD-GDH) Ssc-n1 variant N191R, SEQ ID NO: 1 (Sclerotinia sclerotiorum, UniProt A7F9L2, N191R); conditions: 60 ml culture, crude enzyme; glucose 1-40 mM, pH 6.5, DCIP/PMS
Experimental: as §1, §2, §3

[5] = target: Sclerotinia sclerotiorum glucose dehydrogenase (FAD-GDH) Ssc-n1 variant N191S, SEQ ID NO: 1 (Sclerotinia sclerotiorum, UniProt A7F9L2, N191S); conditions: 60 ml culture, crude enzyme; glucose 1-40 mM, pH 6.5, DCIP/PMS
Experimental: as §1, §2, §3

[6] = target: Sclerotinia sclerotiorum glucose dehydrogenase (FAD-GDH) Ssc-n1 variant S529G, SEQ ID NO: 1 (Sclerotinia sclerotiorum, UniProt A7F9L2, S529G); conditions: 60 ml culture, crude enzyme; glucose 1-40 mM, pH 6.5, DCIP/PMS
Experimental: as §1, §2, §3

[7] = target: Sclerotinia sclerotiorum glucose dehydrogenase (FAD-GDH) Ssc-n2 variant N191E/S529G, SEQ ID NO: 1 (Sclerotinia sclerotiorum, UniProt A7F9L2, N191E/S529G); conditions: 60 ml culture, crude enzyme; glucose 1-40 mM, pH 6.5, DCIP/PMS
Experimental: as §1, §2, §3

[8] = target: Sclerotinia sclerotiorum glucose dehydrogenase (FAD-GDH) Ssc-n2 variant N191R/S529G, SEQ ID NO: 1 (Sclerotinia sclerotiorum, UniProt A7F9L2, N191R/S529G); conditions: 60 ml culture, crude enzyme; glucose 1-40 mM, pH 6.5, DCIP/PMS
Experimental: as §1, §2, §3

[9] = target: Sclerotinia sclerotiorum glucose dehydrogenase (FAD-GDH) Ssc-n2 variant N191S/S529G, SEQ ID NO: 1 (Sclerotinia sclerotiorum, UniProt A7F9L2, N191S/S529G); conditions: 60 ml culture, crude enzyme; glucose 1-40 mM, pH 6.5, DCIP/PMS
Experimental: as §1, §2, §3

[10] = target: Sclerotinia sclerotiorum glucose dehydrogenase (FAD-GDH) Ssc-n3 variant N191K/S529G, SEQ ID NO: 1 (Sclerotinia sclerotiorum, UniProt A7F9L2, N191K/S529G); conditions: 60 ml culture, crude enzyme; glucose 1-40 mM, pH 6.5, DCIP/PMS
Experimental: as §1, §2, §3

[11] = target: Sclerotinia sclerotiorum glucose dehydrogenase (FAD-GDH) Ssc-n4 variant N191K/S529G, SEQ ID NO: 1 (Sclerotinia sclerotiorum, UniProt A7F9L2, N191K/S529G); conditions: 60 ml culture, crude enzyme; glucose 1-40 mM, pH 6.5, DCIP/PMS
Experimental: as §1, §2, §3

[12] = target: Sclerotinia sclerotiorum glucose dehydrogenase (FAD-GDH) Ssc-n2 variant N191K/S529G/G69A, SEQ ID NO: 1 (Sclerotinia sclerotiorum, UniProt A7F9L2, G69A/N191K/S529G); conditions: crude enzyme, glucose 1-40 mM, pH 6.5, DCIP/PMS
Experimental: as §1
(§4) A small-scale expression system was used for some multiple-mutated enzymes. The transformant BL21 (DE3) expressing each mutated enzyme was precultured, and the transformant was inoculated in an amount of 1 vol % with respect to 3 ml of a medium A. The bacterial cells were shake-cultured at 37° C. for 4 hours and then shake-cultured at 20° C. for 20 hours. After the culture, 2 ml of the medium was collected, then suspended by the addition of 400 μl of BugBuster (registered trademark), and then shaken at room temperature for 15 minutes. Then, the suspension was centrifuged (15000 rpm, 4° C., 20 minutes), and the obtained supernatant was used as a crude enzyme preparation.
as §2, §3

[13] = target: Sclerotinia sclerotiorum glucose dehydrogenase (FAD-GDH) Ssc-n2 variant N191K/S529G/G69H, SEQ ID NO: 1 (Sclerotinia sclerotiorum, UniProt A7F9L2, G69H/N191K/S529G); conditions: crude enzyme, glucose 1-40 mM, pH 6.5, DCIP/PMS
Experimental: as §1, §4, §2, §3

[14] = target: Sclerotinia sclerotiorum glucose dehydrogenase (FAD-GDH) Ssc-n2 variant N191K/S529G/Y70F, SEQ ID NO: 1 (Sclerotinia sclerotiorum, UniProt A7F9L2, N191K/S529G/Y70F); conditions: crude enzyme, glucose 1-40 mM, pH 6.5, DCIP/PMS
Experimental: as §1, §4, §2, §3

SMILES: OC[C@H]1OC(O)[C@H](O)[C@@H](O)[C@@H]1O (some centres unmarked) [glucose]
- Vmax [1]: 5.6 U/mg protein
- Vmax [2]: 1.6 U/mg protein
- Vmax [3]: 7.2 U/mg protein
- Vmax [4]: 5.6 U/mg protein
- Vmax [5]: 3.7 U/mg protein
- Vmax [6]: 3.6 U/mg protein
- Vmax [7]: 20.2 U/mg protein
- Vmax [8]: 15.7 U/mg protein
- Vmax [9]: 19.4 U/mg protein
- Vmax [10]: 6.9 U/mg protein
- Vmax [11]: 9.2 U/mg protein
- Vmax ([12]; 3 ml culture): 15.8 U/mg protein
- Vmax ([12]; 60 ml culture): 26.4 U/mg protein
- Vmax ([13]; 3 ml culture): 11.1 U/mg protein
- Vmax ([13]; 60 ml culture): 6.9 U/mg protein
- Vmax ([14]; 3 ml culture): 9.0 U/mg protein
- Vmax ([14]; 60 ml culture): 23.8 U/mg protein
